Positions of bridges follow the written chain, without caps; N, C: chain ends. Residues, ends and D or L forms follow the SMILES beside them. Chains are numbered I, II in the order given.
Species: Rattus norvegicus
Assay: Minimum effective concentration required to abolish the response to an ED75 dose of ANG II (10e-8 M) in the isolated rat uterus assay
Assay type: functional
Conditions: read-out: MEC

Row | SMILES | minimal effective concentration
1 | CC[C@H](C)[C@H](NC(=O)[C@@H]1CCCN1C(=O)[C@H](Cc1c[nH]cn1)NC(=O)[C@@H](NC(=O)[C@H](Cc1ccc(O)cc1)NC(=O)[C@@H](NC(=O)[C@H](CCCN=C(N)N)NC(=O)CNC)C(C)C)[C@@H](C)CC)C(=O)O | 0.021 µM
2 | CC[C@H](C)[C@@H]1NC(=O)[C@H](Cc2ccc(O)cc2)NC(=O)[C@H](C(C)C)NC(=O)[C@H](CCCN=C(N)N)NC(=O)[C@@H](N)CSSC[C@@H](C(=O)O)NC(=O)[C@@H]2CCCN2C(=O)[C@H](Cc2c[nH]cn2)NC1=O (H-CRVYIHPC-OH; disulfide 1-8) | 3.3 µM
3 | CC[C@H](C)[C@@H]1NC(=O)[C@H](Cc2ccc(O)cc2)NC(=O)[C@H](C(C)C)NC(=O)[C@H](CCCN=C(N)N)NC(=O)[C@@H](N)CSSC[C@H](N)C(=O)N[C@@H](CCCN=C(N)N)C(=O)N[C@@H](C(C)C)C(=O)N[C@@H](Cc2ccc(O)cc2)C(=O)N[C@@H]([C@@H](C)CC)C(=O)N[C@@H](Cc2c[nH]cn2)C(=O)N2CCC[C@H]2C(=O)N[C@H](C(=O)O)CSSC[C@@H](C(=O)O)NC(=O)[C@@H]2CCCN2C(=O)[C@H](Cc2c[nH]cn2)NC1=O (I: H-CRVYIHPC-OH / II: H-CRVYIHPC-OH; disulfide I:1-II:1, I:8-II:8) | 9.6 µM
4 | CC[C@H](C)[C@H](NC(=O)[C@H](Cc1ccc(O)cc1)NC(=O)[C@@H](NC(=O)[C@H](CCCN=C(N)N)NC(=O)[C@@H](N)CSCNC(C)=O)C(C)C)C(=O)N[C@@H](Cc1c[nH]cn1)C(=O)N1CCC[C@H]1C(=O)N[C@@H](CSCNC(C)=O)C(=O)O | 0.24 µM

From ChEMBL document CHEMBL1122738, “A cyclic angiotensin antagonist: [1,8-cysteine]angiotensin II” (1984)
